Test results as given in patent US10875829B1, “Azetidine derivatives useful as modulators of cortical catecholaminergic neurotransmission” (Integrative Research Laboratories Sweden AB, priority 2016, dated 2020).
Counter-ions that a name gives are not always drawn. Like-named read-outs stand apart in the source and are kept apart here. Marks after values point to notes of the source that are not given here.

Columns and labels:
NA, DA and 5-HT = experiment: In vivo brain microdialysis: extracellular monoamines in striatum and frontal cortex; set-up: species or system Sprague-Dawley rats; details: 50 μmol/kg s.c., n=1-3; for response vs control in vivo at 50 µmol/kg: Rattus norvegicus, sc
From the text: The microdialysis technique is a well-established technique for measuring extracellular levels of neurotransmitters (Ungerstedt, J Int Med, 1991, 230; 365-73). The microdialysis technique was used to measure the effect of compounds disclosed herein upon the efflux of monoamine transmitters (NA, DA and 5-HT) in striatum and frontal cortex in conscious, freely moving rats.
Male Sprague-Dawley rats weighing 280-320 g were used throughout the experiments. Before the experiment the animals were housed in groups, maximum five animals in each cage, with free access to water and food. The animals were housed at least one week prior to surgery and use in the experiments.
A modified version (Waters et al., J Neural Transm Gen Sect, 1994, 98(1); 39-55) of the !-shaped probe (Santiago and Westerink, N-S Arch Pharmacol, 1990, 342; 407-14) with the AN69 polyacrylonitrile/sodium methyl sulfonate copolymer (HOSPAL; o.d/i.d. 310/220 μm: dialysis membrane (Gambro, Lund, Sweden) was used in the microdialysis experiments. In the dorsal striatum, probes with an exposed length of 3 mm of dialysis membrane were used and in the prefrontal cortex the corresponding length was 2.5 mm. The rats were operated under isoflurane inhalation anesthesia while mounted into a Kopf stereotaxic instrument. Coordinates were calculated relative to bregma; dorsal striatum AP+1.0, ML±2.6, DV 6.2; Pf cortex, AP+3.2, ML±1.2, DV −4.0 8°, according to Paxinos and Watson (New York, Academic Press, 1986; FIG. 8 and FIG. 14). The dialysis probe was positioned in a burr hole under stereotaxic guidance and cemented with phosphatine dental cement (DAB Dental).
The rats were housed individually in cages for 48 h before the dialysis experiments, allowing them to recover from surgery and minimizing the risk of drug interactions with the anesthetics during the following experiments. During this period the rats had free access to food and water. On the day of the experiment the rats were connected to a micro-perfusion pump via a swivel and were replaced in the cage where they could move freely within its confinements. The perfusion medium was a Ringer's solution containing (in mmol/l): NaCl; 140, CaCl2); 1.2, KCl; 3.0, MgCl2; 1.0 (Moghaddam and Bunney. Neurochem., 1989, 53; 652-4). The pump was set to a perfusion speed of 2 μl/min and 40 μl sample volume were collected every 20 min.
The rats were perfused for at least 40 min before sampling began. Five fractions of each 20 min were collected and the last three were used for the establishment of the baseline. After collection of baseline fractions, the pharmacological challenge to the dialysis experiment started. Test compounds were administrated by injection (s.c.) in a volume of 5 ml/kg, with 0.9% NaCl (saline) as vehicle.
The analytical method were based on two chromatographic separations dedicated for amines or acids. Two chromatographic systems shared a common auto injector with a 10-port valve and two sample loops for simultaneous injection on the two systems.
The acids were separated by reversed phase chromatography while the amines were separated by reversed phase ion pairing chromatography preceded by a reverse phase separation in a column switching configuration. Three separation columns (Luna C18 (2), dp 3 μm, 2 mm i.d., Phenomenex) of different lengths were used. Electrochemical detection was accomplished on glassy carbon electrodes (MF-1000, Bioanalytical Systems, Inc.)
The aqueous mobile phase (0.6 ml/min) for the acid system contained citric acid (40 mM, dipotassium hydrogen phosphate 10 mM, methanol 8-11% (v/v) and EDTA 0.1 mM. Column length was 30 mm and detection potential relative to Ag/AgCl reference was 0.74V.
The aqueous ion pairing mobile phase (0.4 ml/min) for the amine system contained citric acid 5 mM, sodium citrate 10 mM, acetone 9% (v/v), tetrahydrofurane 3% (v/v), dodecane sulphonic acid 0.025 mM, and EDTA 0.1 mM. Column length was 50 mm and the preceding column was 20 mm. […]

[1] = target: Human Dopamine Transporter (DAT (h)) (Homo sapiens (Human), UniProt Q01959); experiment: Radioligand binding assay, human dopamine transporter ([3H]BTCP); details: 2 h; single concentration 1.0 E-5 M, duplicate, mean values
Description: (The measurement was performed as described in Pristuba, Z. B., Wilson, J. M., Hoffman, B. J., Kish, S. J. and Nisnik, H. B. (1994), Pharmacological heterogeneity of the cloned and native human dopamine transporter: disassociation of [3H]WIN 35,428 and [3H]GBR 12,935 binding, Mol. Pharmacol., 45: 125)
Cell membrane homogenates (20 μg protein) are incubated for 120 min at 4° C. with 4 nM
(§1) [3H]BTCP in the absence or presence of the test compound in a buffer containing 50 mM Tris-HCl (pH 7.4) and 100 mM NaCl. Nonspecific binding is determined in the presence of 10 μM BTCP. Following incubation, the samples are filtered rapidly under vacuum through glass fiber filters (GF/B, Packard) presoaked with 0.3% PEI and rinsed several times with ice-cold 50 mM Tris-HCl using a 96-sample cell harvester (Unifilter, Packard). The filters are dried then counted for radioactivity in a scintillation counter (Topcount, Packard) using a scintillation cocktail (Microscint 0, Packard).
(§2) The results are expressed as a percent inhibition of the control radioligand specific binding.
(§3) […] Reported values are mean values.

[2] = target: Human Norepinephrine Transporter (NET (h)) (Homo sapiens (Human), UniProt P23975); experiment: Radioligand binding assay, human norepinephrine transporter ([3H]nisoxetine); details: 2 h; single concentration 1.0 E-5 M, duplicate, mean values
Description: (The measurement was performed as described in Pacholczyk, T., Blakely, R. D. and Amara, S. G. (1991), Expression cloning of a cocaine- and antidepressant-sensitive human noradrenaline transporter, Nature, 350: 350)
as §1, with “Cell membrane homogenates (20 μg protein) are incubated for 120 min at 4° C. with 1 nM [3H]nisoxetine” for “[3H]BTCP”, “7.4), 120 mM NaCl” for “7.4)”, “5” for “100”, “KCl.” for “NaCl.”, “1” for “10”, “desipramine.” for “BTCP.”
as §2, §3

[3] = target: Human 5-HT Transporter (SERT (h)) (Homo sapiens (Human), UniProt P31645); experiment: Radioligand binding assay, human 5-HT transporter ([3H]imipramine); details: 1 h; single concentration 1.0 E-5 M, duplicate, mean values
Description: (The measurement was performed as described in Tatsumi, M., Jansen, K., Blakely, R. D. and Richelson, E. (1999), Pharmacological profile of neuroleptics at human monoamine transporters, Eur. J. Pharmacol.
Cell membrane homogenates (12 μg protein) are incubated for 60 min at 22° C. with 2 nM [3H]imipramine in the absence or presence of the test compound in a buffer containing 50 mM Tris-HCl (pH 7.4), 120 mM NaCl, 5 mM KCl and 0.1% BSA.
Nonspecific binding is determined in the presence of 10 μM imipramine.
Following incubation, the samples are filtered rapidly under vacuum through glass fiber filters (GF/B, Packard) presoaked with 0.3% PEI and rinsed several times with an ice-cold buffer containing 50 mM Tris-HCl and 150 mM NaCl using a 96-sample cell harvester (Unifilter, Packard). The filters are dried then counted for radioactivity in a scintillation counter (Topcount, Packard) using a scintillation cocktail (Microscint 0, Packard).
The results are expressed as a percent inhibition of the control radioligand specific binding
as §3

[4] = frontal cortex, read-out: 5-HT FC, maximum effect compared to baseline ± SEM
[5] = frontal cortex, read-out: DA FC, maximum effect compared to baseline ± SEM
[6] = frontal cortex, read-out: NA FC, maximum effect compared to baseline ± SEM
[7] = striatum, read-out: DA Stri, maximum effect compared to baseline ± SEM
[8] = striatum, read-out: 5-HT Stri, maximum effect compared to baseline ± SEM

Human Norepinephrine Transporter (NET (h)), sequence (P23975 whole entry): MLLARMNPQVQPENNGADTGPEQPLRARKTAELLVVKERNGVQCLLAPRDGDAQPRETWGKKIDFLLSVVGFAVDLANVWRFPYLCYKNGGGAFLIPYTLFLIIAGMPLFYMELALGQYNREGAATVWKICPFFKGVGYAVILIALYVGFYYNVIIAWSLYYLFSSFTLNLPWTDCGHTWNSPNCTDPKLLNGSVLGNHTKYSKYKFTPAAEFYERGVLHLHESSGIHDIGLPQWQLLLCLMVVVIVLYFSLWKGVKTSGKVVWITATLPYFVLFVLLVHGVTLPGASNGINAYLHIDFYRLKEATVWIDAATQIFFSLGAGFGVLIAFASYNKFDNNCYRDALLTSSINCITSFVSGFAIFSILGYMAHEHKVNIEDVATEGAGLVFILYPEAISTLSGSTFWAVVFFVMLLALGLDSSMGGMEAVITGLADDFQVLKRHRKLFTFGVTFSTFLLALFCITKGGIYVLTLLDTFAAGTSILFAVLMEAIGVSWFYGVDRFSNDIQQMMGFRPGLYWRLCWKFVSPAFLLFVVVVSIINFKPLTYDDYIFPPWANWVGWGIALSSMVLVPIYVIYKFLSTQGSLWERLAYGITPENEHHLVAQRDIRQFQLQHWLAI
Human Dopamine Transporter (DAT (h)), sequence (Q01959 whole entry): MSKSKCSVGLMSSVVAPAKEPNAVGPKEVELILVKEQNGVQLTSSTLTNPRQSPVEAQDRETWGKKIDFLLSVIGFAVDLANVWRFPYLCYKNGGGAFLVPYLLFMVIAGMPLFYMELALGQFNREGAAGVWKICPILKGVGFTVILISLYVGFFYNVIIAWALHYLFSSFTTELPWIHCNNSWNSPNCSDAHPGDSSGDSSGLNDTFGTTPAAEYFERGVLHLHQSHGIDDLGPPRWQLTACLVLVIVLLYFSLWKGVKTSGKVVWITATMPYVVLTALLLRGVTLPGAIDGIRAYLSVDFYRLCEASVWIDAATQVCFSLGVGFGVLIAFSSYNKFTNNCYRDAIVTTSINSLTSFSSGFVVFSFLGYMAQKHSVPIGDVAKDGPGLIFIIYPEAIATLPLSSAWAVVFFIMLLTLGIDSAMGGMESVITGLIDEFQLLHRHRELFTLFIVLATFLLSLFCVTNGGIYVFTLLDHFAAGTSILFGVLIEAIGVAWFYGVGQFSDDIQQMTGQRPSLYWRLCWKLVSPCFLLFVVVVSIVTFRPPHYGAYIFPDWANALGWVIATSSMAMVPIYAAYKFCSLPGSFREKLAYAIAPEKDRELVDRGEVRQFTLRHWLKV
Human 5-HT Transporter (SERT (h)), sequence (P31645 whole entry): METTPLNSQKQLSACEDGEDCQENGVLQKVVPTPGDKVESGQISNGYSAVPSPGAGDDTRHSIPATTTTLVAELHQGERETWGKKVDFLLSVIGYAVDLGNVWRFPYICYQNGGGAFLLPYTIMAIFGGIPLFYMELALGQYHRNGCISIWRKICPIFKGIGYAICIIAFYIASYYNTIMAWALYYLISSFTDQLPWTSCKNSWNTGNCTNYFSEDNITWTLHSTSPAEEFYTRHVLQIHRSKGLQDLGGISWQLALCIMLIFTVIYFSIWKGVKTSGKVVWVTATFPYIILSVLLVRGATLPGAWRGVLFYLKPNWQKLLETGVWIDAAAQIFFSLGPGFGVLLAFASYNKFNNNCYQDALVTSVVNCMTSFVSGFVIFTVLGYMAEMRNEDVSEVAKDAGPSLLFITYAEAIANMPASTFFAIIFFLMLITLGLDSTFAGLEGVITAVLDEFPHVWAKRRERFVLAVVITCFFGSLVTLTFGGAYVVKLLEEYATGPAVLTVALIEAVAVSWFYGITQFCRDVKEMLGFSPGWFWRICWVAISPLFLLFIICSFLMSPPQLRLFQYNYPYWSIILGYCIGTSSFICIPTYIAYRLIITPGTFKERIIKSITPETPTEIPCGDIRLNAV

| SMILES | inhibition at 10 µM [1] | inhibition at 10 µM [2] | inhibition at 10 µM [3] | response vs control in vivo at 50 µmol/kg (NA, DA and 5-HT; [4]) | response vs control in vivo at 50 µmol/kg (NA, DA and 5-HT; [5]) | response vs control in vivo at 50 µmol/kg (NA, DA and 5-HT; [6]) | response vs control in vivo at 50 µmol/kg (NA, DA and 5-HT; [7]) | NA Stri, maximum effect compared to baseline ± SEM (NA, DA and 5-HT; striatum) | response vs control in vivo at 50 µmol/kg (NA, DA and 5-HT; [8]) |
| --- | --- | --- | --- | --- | --- | --- | --- | --- | --- |
| Fc1ccc(OC2CNC2)c(F)c1F [Example 10, 3-(2,3,4-trifluoro-phenoxy)azetidine fumaric acid salt] | 15% | -2% | 29% | 709 ± 139% | 466 ± 161% | 799 ± 137% | 126 ± 10% | – | – |
| CN1CC(Oc2c(F)c(F)cc(F)c2F)C1 [Example 38, 1-methyl-3-(2,3,5,6-tetrafluorophenoxy)azetidine hydrochloric acid salt] | 11% | 6% | -11% | 148 ± 12% | 467 ± 20% | 422 ± 102% | 203 ± 8% | 306 ± 146^a % of control | 205 ± 20% |
| Fc1c(F)c(F)c(OC2CNC2)c(F)c1F [Example 43, 3-(2,3,4,5,6-pentafluoro-phenoxy)azetidine hydrochloric acid salt] | 11% | -1% | -7.6% | – | – | – | – | – | – |

More lines, main results first:

| inhibition at 10 µM [1] | inhibition at 10 µM [2] | inhibition at 10 µM [3] | SMILES | response vs control in vivo at 50 µmol/kg (NA, DA and 5-HT; [4]) | response vs control in vivo at 50 µmol/kg (NA, DA and 5-HT; [5]) | response vs control in vivo at 50 µmol/kg (NA, DA and 5-HT; [6]) | response vs control in vivo at 50 µmol/kg (NA, DA and 5-HT; [7]) | NA Stri, maximum effect compared to baseline ± SEM (NA, DA and 5-HT; striatum) | response vs control in vivo at 50 µmol/kg (NA, DA and 5-HT; [8]) |
| --- | --- | --- | --- | --- | --- | --- | --- | --- | --- |
| 12% | 6% | 10% | Fc1cc(F)c(OC2CNC2)c(F)c1 [Example 49, 3-(2,4,6-Trifluorophenoxy)azetidine hydrochloric acid salt] | – | 391 ± 131% | 862 ± 437% | 135 ± 2% | 353^b % of control | 573 ± 1% |
| 17% | 3% | 28% | Fc1cc(OC2CNC2)cc(F)c1F [Example 50, 3-(3,4,5-Trifluorophenoxy)azetidine hydrochloric acid salt] | 752 ± 235% | 787 ± 131% | – | 139 ± 20% | – | 574 ± 45% |
| 10% | 5% | 25% | Fc1cc(F)c(OC2CNC2)cc1F [Example 51, 3-(2,4,5-Trifluorophenoxy)azetidine hydrochloric acid salt] | 998 ± 470% | 389 ± 134% | 910 ± 389% | 144 ± 4% | 475^b % of control | 663 ± 63% |
